US7820839B2, “Taxoid-fatty acid conjugates and pharmaceutical compositions thereof” (The Research Foundation of State University of New York, priority 2003, dated 2010)
Read-outs that look alike come from different tables or passages of the source.

Key:
[1] = system: pgp+ human colon tumor xenograft, DLD-1; settings: for Days to 600 mm^3 Median / Growth Delay / Toxicity: number of animals who either died or lost greater than 20% body weight: SCID mice; for Days to 600 mm^3 Median / Growth Delay / Tumor free mice/Group / Toxicity: number of animals who either died or lost greater than 20% body weight: DLD-1; for Tumor free mice/Group: tumors less than 600 mm^3 on day 201
Protocol: (§1) Female severe combined immune deficient, (SCID) mice aged six to eight weeks were obtained from either the in-house breeding facility at Roswell Park Cancer Institute or Taconic (Germantown, N.Y.). All aspects of animal care complied with the Institutional Animal Care and Use Committee guidelines. […] Tumors were initiated by implantation of approximately 50 mg of non-necrotic tumor fragments on the right flank using a 12-guage trocar needle. Chemotherapy was started when the tumor was established as a palpable mass, (approximately 50-100 mm^3 size). Therapy consisted of i.v. injections through the tail vein, given four times, three days apart. Each drug treatment group or drug free vehicle consisted of 4-5 mice per group, untreated controls contained 10 mice per group.
(§2) These were used for comparison purposes. DHA-taxoids and other omega-3 fatty acid-taxoids were prepared as a 30 mg/mL stock solution in equal parts of Tween 80 (polyoxyethylene-sorbitan monooleate; purchased from Sigma Chemical Company) and absolute ethanol. To stablize the formulation of the DHA-taxoids and other omega-3 fatty acid-taxoids, antioxidants, L-ascorbic acid (3.9 mM) and α-tocopherol (2.0 mM), were added. Each stock solution was further diluted before use in 0.9% NaCl (saline) so that the appropriate concentration of each drug could be injected i.v. via the tail vein, in a volume of approximately 0.4 mL for a 20 g mouse. Each drug was administered once a day on […].
(§3) For each animal, the tumor length (1) and width (w), each in mm, were measured using electronic calipers and recorded every 3-4 days. Tumor volume (v), in mm^3, was calculated using the formula: v=0.4(l×w^2). The time in days to the pre-determined target tumor volume of 600 mm^3 was linearly interpolated from a plot of log(volume) versus time. Statistically significant differences in tumor volumes between control and drug-treated mice were determined by the Cox-Mantel test. […] All statistical tests were two-sided.

[2] = system: Madison 109 subcutaneous lung tumor; settings: cited from earlier work
[3] = cited from earlier work
[4] = system: human ovarian tumor xenograft (pgp−) A121; assay: In vivo tumor growth assay, A121 xenograft in SCID mice; settings: for Tumor free mice/Group: no palpable tumor on day 197; for Tumor free mice/Group / Days to 600 mm^3 Median / Growth Delay / Toxicity: number of animals who either died or lost greater than 20% body weight: A121; for Days to 600 mm^3 Median / Growth Delay / Toxicity: number of animals who either died or lost greater than 20% body weight: SCID mice; for antitumor effect (in words): human ovarian tumor xenograft (pgp−) A121, SCID mice
Protocol: as §1, §2, §3

[5] = system: human breast cancer cell line MCF7-MDR; settings: drug-resistant, MDR phenotype; cited from earlier work
[6] = system: human colon carcinoma SW-620 xenografts; settings: SW-620 xenografts in mice; cited from earlier work
[7] = total dose 75 mg/kg (25 mg/kg/inj) i.v. day 5, 8 and 11
[8] = total dose 75 mg/kg (25 mg/kg/inj) i.v.
[9] = total dose 150 mg/kg (50 mg/kg/inj) i.v. day 5, 8 and 11
[10] = total dose 150 mg/kg (50 mg/kg/inj) i.v.
[11] = total dose 240 mg/kg (80 mg/kg/inj) i.v. day 5, 8 and 11
[12] = total dose 240 mg/kg (80 mg/kg/inj) i.v.
[13] = total dose 90 mg/kg (30 mg/kg/inj) i.v.
[14] = total dose 60 mg/kg (20 mg/kg/inj) i.v.

| Compound | Days to 600 mm^3 Median [1, 7] [days] | Growth Delay [1, 8] [days] | Tumor free mice/Group [1, 8] | Days to 600 mm^3 Median [1, 9] [days] | Growth Delay [1, 10] [days] | Toxicity: number of animals who either died or lost greater than 20% body weight [1, 10] | Tumor free mice/Group [1, 10] | Days to 600 mm^3 Median [1, 11] [days] | Growth Delay [1, 12] [days] | Toxicity: number of animals who either died or lost greater than 20% body weight [1, 12] | Tumor free mice/Group [1, 12] | antitumor effect (in words) [4] | further results |
| --- | --- | --- | --- | --- | --- | --- | --- | --- | --- | --- | --- | --- | --- |
| CC/C=C\C/C=C\C/C=C\C/C=C\C/C=C\C/C=C/CCC(=O)O[C@@H](C(=O)O[C@H]1C[C@@]2(O)[C@@H](OC(=O)c3ccccc3)C3[C@](C)(C(=O)[C@H](OC(=O)CC)C(=C1C)C2(C)C)[C@@H](O)C[C@H]1OC[C@@]31OC(C)=O)[C@H](CC(C)C)NC(=O)OC(C)(C)C (stereo partly shown) [DHA-SB-T-1103, 2′-Docosahexaenoyl-3′-dephenyl-3′-(2-methylpropyl)-10-propanoyldocetaxel] | 18 | 4 | 0/5 |  |  |  |  |  |  |  |  |  |  |
| CC/C=C\C/C=C\C/C=C\C/C=C\C/C=C\C/C=C/CCC(=O)O[C@@H](C(=O)O[C@H]1C[C@@]2(O)[C@@H](OC(=O)c3ccccc3)C3[C@]4(OC(C)=O)COC4C[C@H](O)[C@@]3(C)C(=O)[C@H](O)C(=C1C)C2(C)C)[C@@H](NC(=O)OC(C)(C)C)c1ccccc1 (stereo partly shown) [DHA-Docetaxel, reference compound] | 31 | 17 | 0/4 | 48 | 34 | 0 | 0/4 |  |  |  |  |  | Toxicity: number of animals who either died or lost greater than 20% body weight [1, 8]: 0 |
| CC/C=C\C/C=C\C/C=C\C/C=C\C/C=C\C/C=C/CCC(=O)O[C@@H](C(=O)O[C@H]1C[C@@]2(O)[C@@H](OC(=O)c3ccccc3)C3[C@](C)(C(=O)[C@H](OC(C)=O)C(=C1C)C2(C)C)[C@@H](O)C[C@H]1OC[C@@]31OC(C)=O)[C@@H](NC(=O)c1ccccc1)c1ccccc1 (stereo partly shown) [DHA-Paclitaxel, reference compound] |  |  |  |  |  |  |  | 18 | 4 | 0 | 0/5 |  | duration of sustained regression ([2]; optimum dose of 120 mg/kg, all mice): sixty; regression of lung tumor xenografts ([2]; optimum dose of 120 mg/kg, mice): complete regression; lower clearance rate than paclitaxel ([3]; mice): 94 fold; stability in plasma ([3]; plasma): stable in plasma; Tumor free mice/Group [4, 12]: 2/5; Days to 600 mm^3 Median [4, 12]: 197 days; Growth Delay [4, 12]: 186 days; Toxicity: number of animals who either died or lost greater than 20% body weight [4, 12]: 0 |
| CC/C=C\C/C=C\C/C=C\C/C=C\C/C=C\C/C=C\CCC(=O)O[C@@H](C(=O)O[C@H]1C[C@@]2(O)[C@@H](OC(=O)c3ccccc3)[C@@H]3[C@]4(OC(C)=O)CO[C@@H]4C[C@H](O)[C@@]3(C)C(=O)[C@H](OC(=O)C3CC3)C(=C1C)C2(C)C)[C@H](C=C(C)C)NC(=O)OC(C)(C)C [DHA-SB-T-1214, 2′-Docosahexaenoyl-3′-dephenyl-3′-(2-methyl-1-propenyl)-10-cyclopropanecarbonyldocetaxel] |  |  |  |  |  |  |  | >201 | >187 | 0 | 5/5 |  | survival of mice ([1]; day 201, DLD-1, SCID mice): all mice were alive on day 201; tumor detected in treated mice ([1]; day 201, DLD-1, SCID mice): no trace of tumor was detected; antitumor effect (in words) ([1]; drug-resistant human colon tumor xenografts in SCID mice): remarkable antitumor effect |
| CC/C=C\C/C=C\C/C=C\C/C=C\C/C=C\C/C=C/CCC(=O)O[C@@H](C(=O)O[C@H]1C[C@@]2(O)[C@@H](OC(=O)c3ccccc3)C3[C@](C)(C(=O)[C@H](OC(=O)N(C)C)C(=C1C)C2(C)C)[C@@H](O)C[C@H]1OC[C@@]31OC(C)=O)[C@H](C=C(C)C)NC(=O)OC(C)(C)C (stereo partly shown) [DHA-SB-T-1216] |  |  |  |  |  |  |  |  |  |  |  | effective tumor growth delay | Tumor free mice/Group [4, 13]: 1/5; Days to 600 mm^3 Median [4, 13]: >197 days; Growth Delay [4, 13]: >186 days; Toxicity: number of animals who either died or lost greater than 20% body weight [4, 13]: 4 |
| CC(=O)O[C@H]1C(=O)[C@@]2(C)[C@H]([C@H](OC(=O)c3ccccc3)[C@]3(O)C[C@H](OC(=O)[C@H](O)[C@@H](NC(=O)c4ccccc4)c4ccccc4)C(C)=C1C3(C)C)[C@]1(OC(C)=O)CO[C@@H]1C[C@@H]2O [Paclitaxel, reference compound] |  |  |  |  |  |  |  |  |  |  |  |  | regression of the tumors ([2]; optimum dose of 20 mg/kg, mice): neither complete nor partial regression; Days to 600 mm^3 Median ([1]; total dose 60 mg/kg (20 mg/kg/inj) i.v. day 5, 8 and 11): 22 days; Growth Delay [1, 14]: 8 days; Toxicity: number of animals who either died or lost greater than 20% body weight [1, 14]: 0; Tumor free mice/Group [1, 14]: 0/3; Tumor free mice/Group [4, 14]: 0/5; Days to 600 mm^3 Median [4, 14]: 94 days; Growth Delay [4, 14]: 83 days; Toxicity: number of animals who either died or lost greater than 20% body weight [4, 14]: 0; IC50 [5]: 300 to 800 nM |
| CC/C=C\C/C=C\C/C=C\C/C=C\C/C=C\C/C=C\CCC(=O)O[C@@H](C(=O)O[C@@H]1C(C)=C2[C@@H](OC(C)=O)C(=O)[C@@]3(C)[C@H]([C@H](OC(=O)c4ccccc4)[C@@]4(OC(=O)O[C@@H]14)C2(C)C)[C@]1(OC(C)=O)CO[C@@H]1C[C@@H]3O)[C@H](CC(C)C)NC(=O)OC(C)(C)C [DHA-IDN-5109, 2′-Docosahexaenoyl-3′-dephenyl-3′-(2-methylpropyl)-10-acetyldocetaxel-1,14-carbonate] |  |  |  | 14 | 0 | 0 | 0/5 |  |  |  |  |  |  |
| CC/C=C\C/C=C\C/C=C\C/C=C\C/C=C\C/C=C/CCC(=O)O[C@@H](C(=O)O[C@H]1C[C@@]2(O)[C@@H](OC(=O)c3ccccc3)C3[C@](C)(C(=O)[C@H](OC(=O)CC)C(=C1C)C2(C)C)[C@@H](O)C[C@H]1OC[C@@]31OC(C)=O)[C@H](C=C(C)C)NC(=O)OC(C)(C)C (stereo partly shown) [DHA-SB-T-1213, 2′-Docosahexaenoyl-3′-dephenyl-3′-(2-methyl-1-propenyl)-10-propanoyldocetaxel] | 68 | 54 | 0/5 |  |  |  |  |  |  |  |  | excellent results | Tumor free mice/Group [4, 13]: 4/5; Days to 600 mm^3 Median [4, 13]: >197 days; Growth Delay [4, 13]: >186 days |
| CC/C=C\C/C=C\C/C=C\C/C=C\C/C=C\C/C=C/CCC(=O)O[C@@H](C(=O)O[C@H]1C[C@@]2(O)[C@@H](OC(=O)c3ccccc3)C3[C@](C)(C(=O)[C@H](OC(=O)C4CC4)C(=C1C)C2(C)C)[C@@H](O)C[C@H]1OC[C@@]31OC(C)=O)[C@H](CC(C)C)NC(=O)OC(C)(C)C (stereo partly shown) [DHA-SB-T-1104, 2′-Docosahexaenoyl-3′-dephenyl-3′-(2-methyl-1-propyl)-10-cyclopropanecarbonyldocetaxel] |  |  |  |  |  |  |  | 18 | 4 | 0 | 0/5 | effective tumor growth delay | Tumor free mice/Group [4, 12]: 0/5; Days to 600 mm^3 Median [4, 12]: 126 days; Growth Delay [4, 12]: 115 days; Toxicity: number of animals who either died or lost greater than 20% body weight [4, 12]: 0 |
| CC(=O)O[C@H]1C(=O)[C@@]2(C)[C@H]([C@H](OC(=O)c3ccccc3)[C@]34OC(=O)O[C@H]3[C@H](OC(=O)[C@H](O)[C@H](CC(C)C)NC(=O)OC(C)(C)C)C(C)=C1C4(C)C)[C@]1(OC(C)=O)CO[C@@H]1C[C@@H]2O [IDN-5109, ortataxel, reference compound] |  |  |  | 46 | 32 | 0 | 0/3 |  |  |  |  |  | activity against xenografts (in words) [6]: impressive activity |
